Results published in patent US4775674A, “Imidazoquinolinylether derivatives useful as phosphodiesterase and blood aggregation inhibitors” (Bristol-Myers Company, priority 1986, dated 1988).
Values after ≈ are worked out from the molar mass of the structure shown. Read-outs that look alike come from different tables or passages of the source.

Legend:
[1] = biological target: T1, cAMP phosphodiesterase (human platelets) (Homo sapiens, UniProt Q14432); assay: Inhibition of cyclic AMP phosphodiesterase; format: biochemical; details: PDE from human platelets
T1 construct: enzynme obtained from human platelets; from tissue; host or cells: human platelets
T1 sequence (Q14432 whole entry): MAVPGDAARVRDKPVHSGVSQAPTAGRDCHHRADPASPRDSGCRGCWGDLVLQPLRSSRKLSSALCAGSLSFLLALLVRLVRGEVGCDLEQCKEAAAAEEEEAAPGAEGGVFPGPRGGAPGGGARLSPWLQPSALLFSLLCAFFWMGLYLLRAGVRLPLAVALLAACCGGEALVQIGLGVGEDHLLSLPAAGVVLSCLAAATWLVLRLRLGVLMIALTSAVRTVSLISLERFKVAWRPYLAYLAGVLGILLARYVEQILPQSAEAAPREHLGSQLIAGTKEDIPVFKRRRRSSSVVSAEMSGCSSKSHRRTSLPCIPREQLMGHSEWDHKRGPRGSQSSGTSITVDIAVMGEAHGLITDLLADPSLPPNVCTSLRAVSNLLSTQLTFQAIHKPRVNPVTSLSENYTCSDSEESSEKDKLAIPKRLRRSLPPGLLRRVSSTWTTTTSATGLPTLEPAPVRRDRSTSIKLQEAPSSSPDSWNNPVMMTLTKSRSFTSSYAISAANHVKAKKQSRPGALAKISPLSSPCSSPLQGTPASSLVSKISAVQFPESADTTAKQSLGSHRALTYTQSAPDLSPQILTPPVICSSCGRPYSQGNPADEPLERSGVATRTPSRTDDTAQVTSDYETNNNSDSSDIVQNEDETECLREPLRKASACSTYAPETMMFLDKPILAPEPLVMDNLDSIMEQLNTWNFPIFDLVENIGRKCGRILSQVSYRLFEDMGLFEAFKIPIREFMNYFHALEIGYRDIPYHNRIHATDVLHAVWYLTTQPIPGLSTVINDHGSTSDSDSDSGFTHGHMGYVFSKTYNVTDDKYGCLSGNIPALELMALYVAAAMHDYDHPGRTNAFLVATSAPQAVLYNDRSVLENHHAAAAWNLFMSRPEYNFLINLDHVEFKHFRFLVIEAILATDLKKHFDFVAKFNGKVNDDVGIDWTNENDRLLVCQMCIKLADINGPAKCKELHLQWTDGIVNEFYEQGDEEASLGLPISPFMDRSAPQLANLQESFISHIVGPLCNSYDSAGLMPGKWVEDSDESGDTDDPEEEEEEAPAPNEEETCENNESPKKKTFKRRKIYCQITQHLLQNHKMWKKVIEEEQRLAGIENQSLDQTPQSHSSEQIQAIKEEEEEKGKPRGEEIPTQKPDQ
Procedure: This assay is carried out essentially as described by Thompson, et al., Methods in Enzymology, 38, 205-212 (1974). Briefly, tritium labeled cyclic adenosine monophosphate (cAMP) is incubated with a phosphodiesterase (PDE) enzynme obtained from human platelets which converts a portion of the cAMP to 5'AMP in culture tubes. This reaction is terminated by submerging the tubes in a boiling water bath after which they are placed on ice and an aliquot of snake venom is added to each tube. This, during a second incubation, converts the 5'AMP to adenosine. Ion exchange resin is added to bind the remaining cyclic AMP. The tubes are centrifuged to sediment the resin and a portion of the clear supernatent (which contains radioactive adenosine) is counted in a liquid scintillation counter. The cAMP phosphodiesterase inhibition activity of a test agent is determined by pre-incubating the PDE enzyme preparation with the test agent.

[2] = system: adenosine diphosphate (ADP)-induced platelet aggregation; assay: In vitro inhibition of platelet aggregation, ADP-induced (rabbit platelet rich plasma); format: cell-based; details: Oryctolagus cuniculus, ADP 0.5 mcg/ml, read-out: Platelet Inhibition In Vitro - Rabbit PRP EC50 vs. ADP
Procedure: (§1) The aggregometer method of Born (1), as modified by Mustard, et al. (2) was used to assess the in vitro activity of the various compounds as to inhibition of adenosine diphosphate (ADP) and collagen-induced platelet aggregation. Platelet rich plasma (PRP) was separated by centrifugation from citrated (3.8 percent) rabbit blood. […] The various compounds tested were dissolved in dimethylsulfoxide (DMSO) so that 5 mcl added to the platelet rich plasma would yield the desired test concentration. Vehicle control trials were done and compared with aggregation induced in platelet rich plasma containing various concentrations of the test compounds. Dose response curves were obtained and Effective Concentration (EC50) values calculated.

[3] = system: collagen-induced platelet aggregation; assay: In vitro inhibition of platelet aggregation, collagen-induced (rabbit platelet rich plasma); format: cell-based; details: Oryctolagus cuniculus, collagen suspension 0.05 ml, read-out: Platelet Inhibition In Vitro - Rabbit PRP EC50 vs. collagen
Procedure: as §1

[4] = system: ferrets (right ventricular contractile force, blood pressure); assay: In vivo inotropic activity in ferrets; design: species or system ferret; details: Mustela putorius, 1 h, intraduodenal
Procedure: This test is carried out in ferrets as follows. Fasted anesthetized ferrets are instrumented to study hemodynamic parameters as well as right ventricular contractile force (RVCF) using a Walton-Brodie open strain guage arch. Drugs are administered intraduodenally as solutions in DMSO (1 mL or less) and effects on myocardial contractile force and other parameters are monitored for 60 minutes after dosing. Changes in contractile force in response to drug treatment are expressed in terms of percent change from predose control.

[5] = system: platelet aggregation (Ex Vivo vs. ADP); assay: Inhibition of platelet aggregation following oral administration (Ex vivo); format: in vivo; details: Rattus norvegicus, rats, oral by gavage, 2 hours after dosing
Procedure: This test is sometimes referred to in the art as an Ex vivo method and was initially described by Fleming, et al., Arch. Int. Pharmacodyn. Ther., 199, 164 (1972). Briefly, the assay is essentially carried out as follows.
Aggregometry is performed in vitro as previously described on platelet rich plasma samples obtained from rats dosed with either test compounds or the vehicle. In all cases, activity is determined 2 hours after the drug is administered orally at various doses by gavage as a suspension in […] plus a few drops of Tween 20.

[6] = anesthetized ferret, 3 mg/kg, 60 minutes, vs predose control, read-out: Maximum Percentage Change Right Ventricular Contractile Force (RVCF)
[7] = anesthetized ferret, 3 mg/kg, 60 minutes, read-out: Maximum Percentage Change Blood Pressure

O=C(O)COc1ccc2[nH]c3nc(O)nc-3cc2c1 [Example 7, 2-[(1,3-Dihydro-2-oxo-2H-imidazo[4,5-b]quinolin-7-yl)oxy]acetic Acid]
IC50 [1]: 70 nM

COC(=O)CCCCOc1ccc2nc3[nH]c(=O)[nH]c3cc2c1 [Example 13, Methyl 5-[(2,3-Dihydro-2-oxo-1H-imidazo[4,5-b]quinolin-7-yl)oxy]pentanoate]
EC50 [2]: 0.3 µg/mL (≈ 0.951 µM)

O=C(O)CCCCOc1ccc2nc3[nH]c(=O)[nH]c3cc2c1 [Example 8, 5-[(2,3-Dihydro-2-oxo-1H-imidazo[4,5-b]quinolin-7-yl)oxy]pentanoic Acid]
EC50 [2]: > 32 µg/mL
EC50 [3]: > 32 µg/mL

CCN(CC)CCOc1ccc2nc3[nH]c(=O)[nH]c3cc2c1 [Example 34, 7-[(2-Diethylamino)ethoxy]-1,3-dihydro-2H-imidazo[4,5-b]quinolin-2-one]
EC50 [2]: 1.5 µg/mL (≈ 4.99 µM)
EC50 [3]: 0.4 µg/mL (≈ 1.33 µM)

CCOC(=O)COc1ccc2nc3[nH]c(=O)[nH]c3cc2c1 [Example 12, Ethyl [(2,3-Dihydro-2-oxo-1H-imidazo[4,5-b]quinolin-7-yl)oxy]acetate]
EC50 [2]: 8 µg/mL (≈ 27.8 µM)
EC50 [3]: 2.5 µg/mL (≈ 8.7 µM)

CC(C)N1CC(COc2ccc3nc4[nH]c(=O)[nH]c4cc3c2)OC1=O (stereo not drawn) [Example 41, 1,3-Dihydro-7-[[3-(1-methylethyl)-2-oxo-5-oxazolidinyl]methoxy]-2H-imidazo[4,5-b]quinolin-2-one]
EC50 [2]: 3 µg/mL (≈ 8.76 µM)
EC50 [3]: 7 µg/mL (≈ 20.4 µM)
IC50 [1]: 60 nM

CN(C(=O)CCCCOc1ccc2nc3[nH]c(=O)n(C)c3cc2c1)C1CCCCCC1 [Example 28, N-Cycloheptyl-5-[(2,3-dihydro-1-methyl-2-oxo-1H-imidazo[4,5-b]quinolin-7-yl)oxy]-N-methylpentanamide]
change in vivo at 3 mg/kg [4, 6]: 27%
change in vivo at 3 mg/kg [4, 7]: -12%
EC50 [2]: 0.06 µg/mL (≈ 0.141 µM)
IC50 [1]: 600 nM

COC(=O)CCCCOc1ccc2nc3nc(O)n(C)c3cc2c1 [Example 14, Methyl 5-[(2,3-Dihydro-1-methyl-2-oxo 1H-imidazo[4,5-b]quinolin-7-yl)oxy]pentanoate]
EC50 [2]: 3 µg/mL (≈ 9.11 µM)
IC50 [1]: 5000 nM

Cn1c(=O)[nH]c2nc3ccc(OCCCC(=O)N4CCCCC4)cc3cc21 [Example 25, 1-[4-[(2,3-Dihydro-1-methyl-2-oxo-1H-imidazo[4,5-b]quinolin-7-yl)oxy]-1-oxobutyl]piperidine]
EC50 [2]: 4 µg/mL (≈ 10.9 µM)
EC50 [3]: 0.8 µg/mL (≈ 2.17 µM)

CC(C)NCC(O)COc1ccc2nc3[nH]c(=O)[nH]c3cc2c1 (stereo not drawn) [Example 43, 1,3-Dihydro-7-[2-hydroxy-3-[(1-methylethyl)amino]propoxy]-2H-imidazo[4,5-b]quinolin-2-one]
EC50 [2]: > 32 µg/mL
EC50 [3]: > 32 µg/mL
IC50 [1]: 300 nM

O=C(CCCOc1ccc2nc3[nH]c(=O)[nH]c3cc2c1)N1CCCCC1 [Example 24, 1-[4-[(2,3-Dihydro-2-oxo-1H-imidazo[4,5-b]quinolin-7-yl)oxy]-1-oxobutyl]piperidine]
change in vivo at 3 mg/kg [4, 6]: 32%
change in vivo at 3 mg/kg [4, 7]: -19%
EC50 [2]: 0.04 µg/mL (≈ 0.113 µM)
IC50 [1]: 20 nM

CC(C)(C)N1CC(COc2ccc3nc4[nH]c(=O)[nH]c4cc3c2)OC1=O (stereo not drawn) [Example 42, 7-[[3-(1,1-Dimethylethyl)-2-oxooxazolidin-5-yl]methoxy]-1H-imidazo[4,5-b]quinolin-2(3H)-one]
EC50 [2]: 6 µg/mL (≈ 16.8 µM)
EC50 [3]: 0.4 µg/mL (≈ 1.12 µM)
IC50 [1]: 70 nM

Cn1c(O)nc2nc3ccc(OCCCCC(=O)O)cc3cc21 [Example 9, 5-[(2,3-Dihydro-1-methyl-2-oxo-1H-imidazo[4,5-b]quinolin-7-yl)oxy]pentanoicAcid]
EC50 [2]: > 32 µg/mL
EC50 [3]: > 32 µg/mL
IC50 [1]: 800 nM

CN(C(=O)CCCOc1ccc2nc3nc(O)n(C)c3cc2c1)C1CCCCCC1 [Example 23, N-Cycloheptyl-4-[(2,3-dihydro-1-methyl-2-oxo-1H-imidazo[4,5-b]quinolin-7-yl)oxy]-N-methylbutanamide]
change in vivo at 3 mg/kg [4, 6]: 24%
change in vivo at 3 mg/kg [4, 7]: -16%
EC50 [2]: 0.03 µg/mL (≈ 0.0731 µM)
EC50 [3]: 0.005 µg/mL (≈ 0.0122 µM)
IC50 [1]: 30000 nM

CN(C(=O)CCCOc1ccc2nc3[nH]c(=O)[nH]c3cc2c1)C1CCCCCC1 [Example 22, N-Cycloheptyl-N-methyl-4-[(2,3-dihydro-2-oxo-1H-imidazo[4,5-b]quinolin-7-yl)oxy]butanamide]
change in vivo at 0.3 mg/kg ([4]; anesthetized ferret, 60 minutes, vs predose control, read-out: Maximum Percentage Change Right Ventricular Contractile Force (RVCF)): 29 ± 5%
change in vivo at 0.3 mg/kg ([4]; anesthetized ferret, 60 minutes, read-out: Maximum Percentage Change Blood Pressure): -26 ± 4%
EC50 [2]: 0.007 µg/mL (≈ 0.0177 µM)
ED50 [5]: 6.2 mg/kg
EC50 [3]: 0.002 µg/mL (≈ 0.00504 µM)

COC(=O)CCCOc1ccc2nc3[nH]c(=O)n(C)c3cc2c1 [Example 11, Methyl 4-[(2,3-Dihydro-1-methyl-2-oxo-1H-imidazo[4,5-b]quinolin-7-yl)oxy]butanoat]
change in vivo at 3 mg/kg [4, 6]: -10%
change in vivo at 3 mg/kg [4, 7]: -4%
ED50 [5]: 15.7 mg/kg

CN(C(=O)CCCCOc1ccc2nc3nc(O)n(C)c3cc2c1)C1CCCCC1 [Example 27, N-Cyclohexyl-5-[(2,3-dihydro-1-methyl-2-oxo-1H-imidazo[4,5-b]quinolin-7-yl)oxy]N-methylpentanamide]
change in vivo at 3 mg/kg [4, 6]: 35%
change in vivo at 3 mg/kg [4, 7]: -24%
EC50 [2]: 0.06 µg/mL (≈ 0.146 µM)
IC50 [1]: 500 nM

Cc1[nH]c(=O)c(C#N)cc1-c1ccncc1 [milrinone, reference compound]
change in vivo at 3 mg/kg ([4]; read-out: Maximum Percentage Change Right Ventricular Contractile Force (RVCF)): 52%

O=C(CCCOc1ccc2nc3[nH]c(=O)[nH]c3cc2c1)N1CCN(c2ccccc2)CC1 [Example 26, 1-[4-[(2,3-Dihydro-2-oxo-1H-imidazo[4,5-b]quinolin-7-yl)oxy]-1-oxobutyl]-4-phenylpiperazine]
EC50 [2]: 0.125 µg/mL (≈ 0.29 µM)
EC50 [3]: 0.009 µg/mL (≈ 0.0209 µM)
IC50 [1]: 2 nM

O=C(O)CCCOc1ccc2nc3[nH]c(=O)[nH]c3cc2c1 [Example 4, 4-[(2,3-Dihydro-2-oxo-1H-imidazo[4,5-b]quinolin-7-yl)oxy]butanoic Acid]
change in vivo at 3 mg/kg [4, 6]: 3 ± 5%
change in vivo at 3 mg/kg [4, 7]: -3 ± 2%
ED50 [5]: 3.4 mg/kg

O=C(CCCOc1ccc2nc3[nH]c(=O)[nH]c3cc2c1)N1CCOCC1 [Example 15]
change in vivo at 3 mg/kg [4, 6]: 2%
change in vivo at 3 mg/kg [4, 7]: -5%
EC50 [3]: 0.007 µg/mL (≈ 0.0196 µM)

OCCN(CCO)c1nc(N2CCCCC2)c2nc(N(CCO)CCO)nc(N3CCCCC3)c2n1 [dipyridamole, reference compound]
EC50 [2]: > 512 µg/mL
ED50 [5]: > 100 mg/kg

Cn1c(=O)[nH]c2nc3ccc(OCCCC(=O)O)cc3cc21 [Example 6, 4-[(2,3-Dihydro-1-methyl-2-oxo-1H-imidazo[4,5-b]quinolin-7-yl)oxy]butanoic Acid]
EC50 [2]: > 32 µg/mL
EC50 [3]: > 32 µg/mL
IC50 [1]: 600 nM

Oc1nc2cc3cc(OCCCCc4nnnn4C4CCCCC4)ccc3[nH]c-2n1 [Example 36, 7-[4-(1-Cyclohexyl-1H-tetrazol-5-yl)butoxy]-1,3-dihydro-2H-imidazo[4,5-b]quinolin-2-one]
EC50 [3]: 0.02 µg/mL (≈ 0.0491 µM)
IC50 [1]: 4 nM

O=c1[nH]c2cc3cc(OCCCCS(=O)(=O)c4ccccc4)ccc3nc2[nH]1 [Example 35, 7-[4-(Phenylsulfonyl)butoxy]-1,3-dihydro-2H-imidazo[4,5-b]quinolin-2-one]
change in vivo at 3 mg/kg [4, 6]: 11 ± 5%
change in vivo at 3 mg/kg [4, 7]: -10 ± 8%
EC50 [2]: 0.07 µg/mL (≈ 0.176 µM)
ED50 [5]: 4.3 mg/kg
IC50 [1]: 1 nM

O=C(CCCOc1ccc2nc3[nH]c(=O)[nH]c3cc2c1)NC1CCCCC1 [Example 18, N-Cyclohexyl-4-[(2,3-dihydro-2-oxo-1H-imidazo[4,5-b]quinolin-7-yl)oxy]butanamide]
change in vivo at 3 mg/kg [4, 6]: 5%
change in vivo at 3 mg/kg [4, 7]: -8%
EC50 [2]: 0.015 µg/mL (≈ 0.0407 µM)
EC50 [3]: 0.0025 µg/mL (≈ 0.00679 µM)
